# Measured values from ChEMBL document CHEMBL2074134, “Identification and characterization of human organic anion transporter 3 expressing predominantly in the kidney” (Mol Pharmacol, 2001).
# B1: Organic anion transporter 3 (Homo sapiens) (protein)
# chain: MTFSEILDRVGSMGHFQFLHVAILGLPILNMANHNLLQIFTAATPVHHCRPPHNASTGPWVLPMGPNGKPERCLRFVHPPNASLPNDTQRAMEPCLDGWVYNSTKDSIVTEWDLVCNSNKLKEMAQSIFMAGILIGGLVLGDLSDRFGRRPILTCSYLLLAASGSGAAFSPTFPIYMVFRFLCGFGISGITLSTVILNVEWVPTRMRAIMSTALGYCYTFGQFILPGLAYAIPQWRWLQLTVSIPFFVFFLSSWWTPESIRWLVLSGKSSKALKILRRVAVFNGKKEEGERLSLEELKLNLQKEISLAKAKYTASDLFRIPMLRRMTFCLSLAWFATGFAYYSLAMGVEEFGVNLYILQIIFGGVDVPAKFITILSLSYLGRHTTQAAALLLAGGAILALTFVPLDLQTVRTVLAVFGKGCLSSSFSCLFLYTSELYPTVIRQTGMGVSNLWTRVGSMVSPLVKITGEVQPFIPNIIYGITALLGGSAALFLPETLNQPLPETIEDLENWSLRAKKPKQEPEVEKASQRIPLQPHGPGLGSS
# Tests used:
# [1] = molecular target: T1, Organic anion transporter 3 (Homo sapiens, UniProt Q8TCC7); assay: (§1) TP_TRANSPORTER: uptake in Xenopus laevis oocytes; type: functional, cell-based; conditions: oocyte
# T1 sequence (Q8TCC7 whole entry): B1 chain
# [2] = molecular target: T1, Organic anion transporter 3; assay: TP_TRANSPORTER: inhibition of E1S uptake (E1S: 0.05 uM, Bumetanide: 5 uM) in Xenopus laevis oocytes; type: functional, cell-based; conditions: oocyte
# [3] = molecular target: T1, Organic anion transporter 3; assay: TP_TRANSPORTER: inhibition of E1S uptake (E1S: 0.05 uM, Corticosterone: 5 uM) in Xenopus laevis oocytes; type: functional, cell-based; conditions: oocyte
# [4] = molecular target: T1, Organic anion transporter 3; assay: TP_TRANSPORTER: inhibition of E1S uptake (E1S: 0.05 uM, Diclofenac: 5 uM) in Xenopus laevis oocytes; type: functional, cell-based; conditions: oocyte
# [5] = molecular target: T1, Organic anion transporter 3; assay: TP_TRANSPORTER: inhibition of E1S uptake (E1S: 0.05 uM, Glutarate: 5 uM) in Xenopus laevis oocytes; type: functional, cell-based; conditions: oocyte
# [6] = molecular target: T1, Organic anion transporter 3; assay: TP_TRANSPORTER: inhibition of E1S uptake (E1S: 0.05 uM, Guanidine: 5 uM) in Xenopus laevis oocytes; type: functional, cell-based; conditions: oocyte
# [7] = molecular target: T1, Organic anion transporter 3; assay: TP_TRANSPORTER: inhibition of E1S uptake (E1S: 0.05 uM, Ibuprofen: 5 uM) in Xenopus laevis oocytes; type: functional, cell-based; conditions: oocyte
# [8] = molecular target: T1, Organic anion transporter 3; assay: TP_TRANSPORTER: inhibition of E1S uptake (E1S: 0.05 uM, Indomethacin: 5 uM) in Xenopus laevis oocytes; type: functional, cell-based; conditions: oocyte
# [9] = molecular target: T1, Organic anion transporter 3; assay: TP_TRANSPORTER: inhibition of E1S uptake (E1S: 0.05 uM, Ouabain: 5 uM) in Xenopus laevis oocytes; type: functional, cell-based; conditions: oocyte
# [10] = molecular target: T1, Organic anion transporter 3; assay: TP_TRANSPORTER: inhibition of E1S uptake (E1S: 0.05 uM, PCG: 5 uM) in Xenopus laevis oocytes; type: functional, cell-based; conditions: oocyte
# [11] = molecular target: T1, Organic anion transporter 3; assay: TP_TRANSPORTER: inhibition of E1S uptake (E1S: 0.05 uM, DHEAS: 5 uM) in Xenopus laevis oocytes; type: functional, cell-based; conditions: oocyte
# [12] = molecular target: T1, Organic anion transporter 3; assay: TP_TRANSPORTER: inhibition of E1S uptake (E1S: 0.05 uM, Probenecid: 5 uM) in Xenopus laevis oocytes; type: functional, cell-based; conditions: oocyte
# [13] = molecular target: T1, Organic anion transporter 3; assay: TP_TRANSPORTER: inhibition of E1S uptake (E1S: 0.05 uM, Quinidine: 5 uM) in Xenopus laevis oocytes; type: functional, cell-based; conditions: oocyte
# [14] = molecular target: T1, Organic anion transporter 3; assay: TP_TRANSPORTER: inhibition of E1S uptake (E1S: 0.05 uM, BSP: 5 uM) in Xenopus laevis oocytes; type: functional, cell-based; conditions: oocyte
# [15] = molecular target: T1, Organic anion transporter 3; assay: TP_TRANSPORTER: inhibition of E1S uptake (E1S: 0.05 uM, AZT: 5 uM) in Xenopus laevis oocytes; type: functional, cell-based; conditions: oocyte
# [16] = substrate: CN(Cc1cnc2nc(N)nc(N)c2n1)c1ccc(C(=O)N[C@@H](CCC(=O)O)C(=O)O)cc1; assay: as §1; type: functional, cell-based, Oocyte
# [17] = substrate: C[C@]12CC[C@@H]3c4ccc(OS(=O)(=O)O)cc4CC[C@H]3[C@@H]1CCC2=O; assay: as §1; type: functional, cell-based, Oocyte
# [18] = substrate: Nc1ccc(C(=O)NCC(=O)O)cc1; assay: as §1; type: functional, cell-based, Oocyte
# [19] = substrate: CN/C(=N/CCSCc1nc[nH]c1C)NC#N; assay: cells, lysate or membranes named
molecule,measurement,setting,value
C[C@@H]1Cc2c(Cl)cc(C(=O)N[C@@H](Cc3ccccc3)C(=O)O)c(O)c2C(=O)O1 [3R14S-OCHRATOXIN A],Activity,[1],substrate [+]
Nc1nc2c(ncn2COCCO)c(=O)[nH]1 [ACYCLOVIR],Activity,[1],is not a substrate [-]
CCCCNc1cc(C(=O)O)cc(S(N)(=O)=O)c1Oc1ccccc1 [BUMETANIDE],Activity,[2],inhibitor [(at a rough estimate) 10 % of control]
C[C@]12C[C@H](O)[C@H]3[C@@H](CCC4=CC(=O)CC[C@@]43C)[C@@H]1CC[C@@H]2C(=O)CO [CORTICOSTERONE],Activity,[3],inhibitor [(at a rough estimate) 30 % of control]
O=C(O)Cc1ccccc1Nc1c(Cl)cccc1Cl [DICLOFENAC],Activity,[4],inhibitor [(at a rough estimate) 10 % of control]
C[C@]12CC[C@@H]3c4ccc(O)cc4CC[C@H]3[C@@H]1CC[C@@H]2O[C@@H]1O[C@H](C(=O)O)[C@@H](O)[C@H](O)[C@H]1O [ESTRADIOL 17B GLUCURONIDE],Activity,[1],substrate [+]
O=C(O)[C@H]1O[C@@H](O)[C@H](O)[C@@H](O)[C@@H]1O [GLUCURONATE],Activity,[1],is not a substrate [-]
O=C(O)CCCC(=O)O [GLUTARATE],Activity,[1],substrate [+]
same,Activity,[5],inhibitor [(at a rough estimate) 35 % of control]
N=C(N)N [GUANIDINE],Activity,[6],is not an inhibitor [-]
CC(C)Cc1ccc(C(C)C(=O)O)cc1 (centres undefined) [IBUPROFEN],Activity,[1],is not a substrate [-]
same,Activity,[7],inhibitor [(at a rough estimate) 10 % of control]
COc1ccc2c(c1)c(CC(=O)O)c(C)n2C(=O)c1ccc(Cl)cc1 [INDOMETHACIN],Activity,[8],inhibitor [(at a rough estimate) 15 % of control]
C[C@@H]1O[C@@H](O[C@H]2C[C@@H](O)[C@]3(CO)[C@H]4[C@H](O)C[C@]5(C)[C@@H](C6=CC(=O)OC6)CC[C@]5(O)[C@@H]4CC[C@]3(O)C2)[C@H](O)[C@H](O)[C@H]1O [OUABAIN],Activity,[9],is not an inhibitor [-]
CC1(C)S[C@@H]2[C@H](NC(=O)Cc3ccccc3)C(=O)N2[C@H]1C(=O)O [PENICILLIN G],Activity,[10],inhibitor [(at a rough estimate) 35 % of control]
C[C@]12CC[C@H](OS(=O)(=O)O)CC1=CC[C@@H]1[C@@H]2CC[C@]2(C)C(=O)CC[C@@H]12 [PRASTERONE SULFURIC ACID],Activity,[11],inhibitor [(at a rough estimate) 10 % of control]
same,Activity,[1],substrate [+]
CCCN(CCC)S(=O)(=O)c1ccc(C(=O)O)cc1 [PROBENECID],Activity,[12],inhibitor [(at a rough estimate) 10 % of control]
C=C[C@H]1C[N@@]2CC[C@H]1C[C@@H]2[C@@H](O)c1ccnc2ccc(OC)cc12 [QUINIDINE],Activity,[13],inhibitor [(at a rough estimate) 55 % of control]
O=C(O)c1ccccc1O [SALICYLIC ACID],Activity,[1],substrate [+]
O=C(O)CCC(=O)O [SUCCINIC ACID],Activity,[1],is not a substrate [-]
O=C1OC(c2ccc(O)c(S(=O)(=O)[O-])c2)(c2ccc(O)c(S(=O)(=O)[O-])c2)c2c(Br)c(Br)c(Br)c(Br)c21.[Na+].[Na+] [SULFOBROMOPHTHALEIN SODIUM],Activity,[14],inhibitor [(at a rough estimate) 55 % of control]
O=c1[nH]c(=O)c2[nH]c(=O)[nH]c2[nH]1 [URIC ACID],Activity,[1],substrate [+]
CCCC(CCC)C(=O)O [VALPROIC ACID],Activity,[1],is not a substrate [-]
Cc1cn([C@H]2C[C@H](N=[N+]=[N-])[C@@H](CO)O2)c(=O)[nH]c1=O [ZIDOVUDINE],Activity,[15],is not an inhibitor [-]
B1,Km,[16],10.9 µM
same,Km,[17],3.1 µM
same,Km,[18],87.2 µM
same,Km,[19],57.4 µM
